We go through two molecules from US12303509B2, “Compounds for the treatment of BRAF-associated diseases and disorders” (Pfizer Inc., priority 2020, dated 2025).

The IC50 is the concentration at which inhibition is half-maximal.

Type in all cases: cell-based
In experiment [1] the test system is WM3629 cells (BRAF D594G/NRAS G12D). Put plainly: Cellular phospho-ERK inhibition assay in WM3629 cells. The note with it: 1 hour treatment, read-out: IC50 WM3629 pERK. The method, then:
The compounds of Example 13, Example 14 and Example 126 were evaluated in a phospho-ERK assay in two mutant BRAF Class III cell lines: NCI-H1666 (BRAF^G466V) and WM3629 cells (BRAF^D594G/NRAS^G12D). NCI-H1666 cells were obtained from the American Type Culture Collection (ATCC, Rockville, MD) and WM3629 cells were obtained from Rockland Immunochemicals (Limerick, PA). Cells were maintained in RPMI growth medium containing 10% FBS.
Cells were harvested according to standard protocols, counted, and plated onto flat-bottom, 96-well tissue culture plates (Costar #3599) at 2.5×10^4 cells/well in 100 μL/well of growth medium containing 10% FBS. After an overnight incubation at 37° C. with 5% CO2 cells were treated for 1 hour at 37° C., 5% CO2 with inhibitors prepared as a 9-point, 1:3.33 fold dilution series with final compound concentrations ranging from 66 pM-10 μM and a constant DMSO concentration of 0.25%. Control wells contained either 0.25% DMSO alone (uninhibited control) or 10 μM binimetinib (complete inhibition control). The levels of phosphorylated ERK were determined using an In Cell Western protocol: following compound incubation, growth medium was discarded, and cells were fixed with 0.4% formaldehyde in PBS for 20 minutes at room temperature. Cells were permeabilized with 100% methanol for 10 minutes at room temperature. Plates were washed with PBS containing 0.05% Tween-20 and blocked for 1 hour at room temperature with LI-COR Blocking Buffer (LI-COR Biosciences; Cat. #927-40000). Plates were then incubated for 2 hours at room temperature with 50 μL of a 1:400 dilution of anti-phospho-ERK1/2 (Thr202/Tyr204) (Cell Signaling; Cat. #9101) and a 1:1000 dilution of anti-GAPDH (Millipore; Cat. #MAB374) in LI-COR blocking buffer containing 0.05% Tween-20. […] Plates were analyzed by reading on an Odyssey CLx infrared scanner. […]
[formula] • Where: • Xmax d Average Uninhibited Controls • Xmin Average Complete Inhibition Controls • IC50 values were then calculated using a 4-parameter fit in XLfit software and are shown in Table A2.

In a further experiment the test system is H1755 cells. The experiment can be described thus: Cellular phospho-ERK inhibition assay in H1755 cells. Particulars: Homo sapiens, NCI-H1755, 2 hours treatment, read-out: H1755 Cell IC50. In short, it runs like this: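 In Cell Western detection of phospho-ERK1/2 (Thr202/Tyr204) over GAPDH after 2 h compound exposure (66 pM to 10 μM, 9 points, 0.25% DMSO) of A375 cells in DMEM or H1755 cells in RPMI, both with 10% FBS. Percent of control set by DMSO and 10 μM binimetinib; 4-parameter IC50.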

The test system of experiment [2] is WM3629 cells (BRAF D594G/NRAS G12D). The experiment can be described thus: Proliferation assay (CellTiter-Glo) in WM3629 cells. Particulars: 3-5 day incubation. The method, then: The compounds of Example 13, Example 14 and Example 126 were evaluated in a proliferation assay in two mutant BRAF Class III cell lines: NCI-H1666 (BRAF^G466V) and WM3629 cells (BRAF^D594G/NRAS^G12D). NCI-H1666 cells were obtained from the American Type Culture Collection (ATCC, Rockville, MD) and WM3629 cells were obtained from Rockland Immunochemicals (Limerick, PA). Cells were maintained in RPMI growth medium containing 10% FBS.
Cells were harvested according to standard protocols, counted, and plated onto flat-bottom, 96-well tissue culture plates (Costar #3599) at 2000-5000 cells/well in 100 μL/well of growth medium containing 10% FBS. Cells were incubated at 37° C. with 5% CO2 overnight then treated with inhibitors prepared as a 9-point, 1:3.33 fold dilution series with final compound concentrations ranging from 66 pM-10 μM and a constant DMSO concentration of 0.25%. Control wells contained 0.25% DMSO alone. After a 3-5 day incubation at 37° C., 5% CO2, cell viability was determined by adding 100 μL CellTiter-Glo® Reagent (Promega) to each well and incubated for 15 minutes at room temperature. “Day 0” controls were determined by performing CellTiter-Glo© assay on DMSO control wells at the time of compound treatment (“Day 0” control=0 POC). Luminescence was measured on a Cytation 5 plate reader (BioTek) and values were converted to POC using the following equation:
[formula] • Where: • Xmax Average DMSO Controls • Xmin Average “Day 0” DMSO Controls • IC50 values were calculated using a 4-parameter fit in XLfit software and are shown in Table A2.

As to `Cn1cnc2ccc(Nc3c(F)ccc(NS(=O)(=O)N4CC5CC4C5)c3Cl)c(F)c2c1=O` [Example 13, N-(2-chloro-4-fluoro-3-((5-fluoro-3-methyl-4-oxo-3,4-dihydroquinazolin-6-yl)amino)phenyl)-2-azabicyclo[2.1.1]hexane-2-sulfonamide], the IC50 was 0.0007 µM in experiment [1], 0.078 µM in the experiment with H1755 cells and greater than 10 µM in experiment [2].

`Cn1cnc2ccc(Nc3c(F)ccc(NS(=O)(=O)N4CC[C@@H](F)C4)c3Cl)c(F)c2c1=O` [Example 14, (R)-N-(2-chloro-4-fluoro-3-((5-fluoro-3-methyl-4-oxo-3,4-dihydroquinazolin-6-yl)amino)phenyl)-3-fluoropyrrolidine-1-sulfonamide]: the IC50 is 0.0002 µM in experiment [1], 0.021 µM with H1755 cells and greater than 10 µM in experiment [2].
